Laboratory results published in patent US20170065564A1, “BIS-CYCLIC GUANIDINE COMPOUND COMPOSITIONS, METHODS OF USE AND TREATMENT THEREOF” (University of South Florida, priority 2014, published 2017).

Key:
Assay type in all cases: cell-based
Staphylococcus aureus = assay: MIC micro broth dilution assay; parameters: key to stacked score activity, 100/MIC, S: stacked score = 100/MIC; conditions: S. aureus
Experimental: (§1) For this study we used a representative panel of multi-drug resistant clinical ESKAPE pathogen isolates (Supplemental Table S6).^42 43 3a, 44 45 Gram-positive organisms were grown in tryptic soy broth media (TSB), whilst Gram-negative organisms were grown in lysogeny Broth (LB), as described by us previously. ^43 MIC and MBC determination assays.
(§2) Broth cultures of ESKAPE strains were grown overnight before being diluted 1 in 1,000 in fresh media. Sterile 96-well plates were loaded with culture and compounds (in DMF) were added at decreasing concentrations to equal a total volume of 200 μl per well. Care was taken to not add more than 2.0% DMF to any well. Plates were then incubated at 37° C., and MICs determined after 24 hours by visual inspection for a lack of turbidity in wells. All assays were performed in triplicate with identical results obtained. For both the scaffold ranking and positional scanning samples, relative broad-spectrum activity was determined via stacked scores: […]

Klebsiella pneumoniae = assay: MIC micro broth dilution assay; parameters: key to stacked score activity, 100/MIC, K: stacked score = 100/MIC; conditions: K. pneumoniae
Experimental: as §1, §2

Acinetobacter baumannii = assay: MIC micro broth dilution assay; parameters: key to stacked score activity, 100/MIC, A: stacked score = 100/MIC; conditions: A. baumannii
Experimental: as §1, §2

Enterobacter cloacae = assay: MIC micro broth dilution assay; parameters: key to stacked score activity, 100/MIC, E: stacked score = 100/MIC; conditions: E. cloacae
Experimental: as §1, §2

Enterococcus faecium = assay: MIC micro broth dilution assay; parameters: key to stacked score activity, 100/MIC, E: stacked score = 100/MIC; conditions: E. faecium
Experimental: as §1, §2

ESKAPE pathogens = assay: MIC micro broth dilution assay, statements and stacked scores over all ESKAPE pathogens; conditions: letters E,S,K,A,P,E = ESKAPE pathogens, — = none
Experimental: as §1
as §2, with “The minimum inhibitory concentration (MIC) for the combinatorial libraries, deconvolved 2157 library, and individual compounds were determined as follows. Broth” for “Broth”

SMILES | stacked score activity, 100/MIC, S (Staphylococcus aureus) | stacked score activity, 100/MIC, K (Klebsiella pneumoniae) | stacked score activity, 100/MIC, A (Acinetobacter baumannii) | stacked score activity, 100/MIC, E (Enterobacter cloacae) | stacked score activity, 100/MIC, E (Enterococcus faecium) | pathogens against which the compound showed activity at 4 ug/ml (ESKAPE pathogens) | pathogens against which the compound showed activity at 5 ug/ml (ESKAPE pathogens) | pathogens against which the compound showed activity at 10 ug/ml (ESKAPE pathogens) | pathogens against which the compound showed activity at 25 ug/ml (ESKAPE pathogens)
CCCC[C@H]1CN(CCCC[C@H]2CNC(=N)N2CCc2cccc(C(F)(F)F)c2)C(=N)N1CCc1ccc(-c2ccccc2)cc1 [Compound 3] | 33 | 25 | 25 | 20 | 25 | ESKA | ESKAPE | ESKAPE | ESKAPE
CCCCCCCN1C(=N)N(CCCC[C@H]2CNC(=N)N2CCc2cccc(C(F)(F)F)c2)C[C@H]1Cc1cccc2ccccc12 [Compound 4] | 25 | 20 | 25 | 20 | 33 | ESA | ESKAE | ESKAE | ESKAPE
N=C1NC[C@H](CCCCN2C[C@@H](Cc3cccc4ccccc34)N(CCc3ccc(-c4ccccc4)cc3)C2=N)N1CCc1cccc(C(F)(F)F)c1 [Compound 6] | 20 | 20 | 20 | 20 | 10 | – | SKAE | ESKAE | ESKAPE
N=C1NC[C@H](CCCCN2C[C@H](CC3CCCCC3)N(CCCCC3CCCCC3)C2=N)N1CCc1cccc(C(F)(F)F)c1 [Compound 8] | 10 | 20 | 20 | 20 | 20 | – | EKAPE | ESKAPE | ESKAPE
N=C1NC[C@H](CCCCN2C[C@H](CC3CCCCC3)N(CCc3ccc(-c4ccccc4)cc3)C2=N)N1CCc1cccc(C(F)(F)F)c1 [Compound 9] | 20 | 20 | 20 | 20 | 25 | – | ESKAPE | ESKAPE | ESKAPE
CCCCCCCN1C(=N)N(CCCC[C@H]2CNC(=N)N2CCCCC2CCCCC2)C[C@@H]1CCCC [Compound 10] | 25 | 20 | 25 | 20 | 25 | ESAP | ESKAPE | ESKAPE | ESKAPE
CCCC[C@H]1CN(CCCC[C@H]2CNC(=N)N2CCCCC2CCCCC2)C(=N)N1CCCCC1CCCCC1 [Compound 11] | 20 | 20 | 25 | 20 | 50 | – | ESAPE | ESKAPE | ESKAPE
CCCC[C@H]1CN(CCCC[C@H]2CNC(=N)N2CCCCC2CCCCC2)C(=N)N1CCc1ccc(-c2ccccc2)cc1 [Compound 12] | 20 | 20 | 25 | 20 | 20 | – | ESKAE | ESKAPE | ESKAPE
CCCCCCCN1C(=N)N(CCCC[C@H]2CNC(=N)N2CCCCC2CCCCC2)C[C@H]1Cc1cccc2ccccc12 [Compound 13] | 20 | 20 | 20 | 20 | 20 | – | ESKAE | ESKAE | ESKAPE
N=C1NC[C@H](CCCCN2C[C@@H](Cc3cccc4ccccc34)N(CCCCC3CCCCC3)C2=N)N1CCCCC1CCCCC1 [Compound 14] | 20 | 20 | 20 | 20 | 10 | – | SKAE | ESKAE | ESKAPE
N=C1NC[C@H](CCCCN2C[C@@H](Cc3cccc4ccccc34)N(CCc3ccc(-c4ccccc4)cc3)C2=N)N1CCCCC1CCCCC1 [Compound 15] | 20 | 10 | 4 | 20 | 10 | – | – | ESKE | ESKAPE
N=C1NC[C@H](CCCCN2C[C@H](CC3CCCCC3)N(CCCCC3CCCCC3)C2=N)N1CCCCC1CCCCC1 [Compound 17] | 20 | 20 | 20 | 20 | 20 | – | ESKAPE | ESKAPE | ESKAPE
N=C1NC[C@H](CCCCN2C[C@H](CC3CCCCC3)N(CCc3ccc(-c4ccccc4)cc3)C2=N)N1CCCCC1CCCCC1 [Compound 18] | 20 | 20 | 20 | 20 | 20 | – | ESKAPE | ESKAPE | ESKAPE
